≈ marks a conversion by molar mass, not a printed value. Where two headings read alike, the source gives them in different places.
What was measured:
[1] = target: CK1g3 (Homo sapiens, UniProt Q9Y6M4); assay: Exemplary Kinase Panel Analysis; type: biochemical; details: 10 concentrations, 3-fold serial dilutions starting at 5 μM, duplicate
[2] = Rat Liver Microsomes stability; type: in vitro ADME; details: read-out: Rat Liver Microsomes t½
[3] = target: T1, hERG (Homo sapiens, UniProt Q12809); assay: hERG K+ channel current in HEK293 cells; type: cell-based
T1 construct: expressed in transfected cells; host or cells: HEK293
T1 sequence (Q12809 whole entry): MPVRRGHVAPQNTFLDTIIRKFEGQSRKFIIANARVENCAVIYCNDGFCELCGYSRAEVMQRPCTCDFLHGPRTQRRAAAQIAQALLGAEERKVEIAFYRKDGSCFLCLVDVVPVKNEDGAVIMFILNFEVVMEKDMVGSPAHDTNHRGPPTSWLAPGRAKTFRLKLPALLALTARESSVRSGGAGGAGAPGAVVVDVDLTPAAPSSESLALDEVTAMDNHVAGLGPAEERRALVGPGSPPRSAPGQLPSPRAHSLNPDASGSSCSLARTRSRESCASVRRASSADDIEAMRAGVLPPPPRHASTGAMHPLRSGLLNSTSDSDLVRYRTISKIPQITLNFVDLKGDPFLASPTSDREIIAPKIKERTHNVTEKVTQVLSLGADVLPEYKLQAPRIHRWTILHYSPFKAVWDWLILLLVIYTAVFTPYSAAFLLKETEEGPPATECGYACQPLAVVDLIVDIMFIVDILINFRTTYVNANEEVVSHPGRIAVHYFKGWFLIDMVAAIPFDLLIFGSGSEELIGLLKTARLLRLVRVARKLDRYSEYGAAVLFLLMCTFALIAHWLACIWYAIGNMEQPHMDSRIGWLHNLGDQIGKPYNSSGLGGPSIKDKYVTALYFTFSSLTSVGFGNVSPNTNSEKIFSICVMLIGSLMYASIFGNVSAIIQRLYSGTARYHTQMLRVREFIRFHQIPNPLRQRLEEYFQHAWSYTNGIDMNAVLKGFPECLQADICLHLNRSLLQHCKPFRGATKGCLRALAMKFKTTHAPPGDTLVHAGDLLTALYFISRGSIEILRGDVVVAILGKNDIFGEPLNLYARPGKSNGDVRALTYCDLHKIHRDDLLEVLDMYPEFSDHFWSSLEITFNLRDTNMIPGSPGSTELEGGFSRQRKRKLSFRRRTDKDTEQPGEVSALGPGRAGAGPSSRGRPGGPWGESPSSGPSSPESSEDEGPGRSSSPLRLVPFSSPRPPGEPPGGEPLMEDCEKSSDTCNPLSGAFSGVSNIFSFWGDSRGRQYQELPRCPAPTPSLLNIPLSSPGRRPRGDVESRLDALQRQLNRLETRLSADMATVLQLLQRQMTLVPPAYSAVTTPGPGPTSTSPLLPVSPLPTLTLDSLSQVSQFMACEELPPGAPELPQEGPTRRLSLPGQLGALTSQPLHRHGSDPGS

[4] = target: EGFR (T790M) (Homo sapiens, UniProt P00533, T790M); assay: Exemplary Kinase Panel Analysis; type: biochemical; details: 10 concentrations, 3-fold serial dilutions starting at 5 μM, duplicate
[5] = target: EGFR (d752-759) (Homo sapiens, UniProt P00533, DEL752-759); assay: Exemplary Kinase Panel Analysis; type: biochemical; details: 10 concentrations, 3-fold serial dilutions starting at 5 μM, duplicate
Sequence of EGFR (d752-759) (P00533 with tags, fused parts or gaps DEL752-759 limits assumed): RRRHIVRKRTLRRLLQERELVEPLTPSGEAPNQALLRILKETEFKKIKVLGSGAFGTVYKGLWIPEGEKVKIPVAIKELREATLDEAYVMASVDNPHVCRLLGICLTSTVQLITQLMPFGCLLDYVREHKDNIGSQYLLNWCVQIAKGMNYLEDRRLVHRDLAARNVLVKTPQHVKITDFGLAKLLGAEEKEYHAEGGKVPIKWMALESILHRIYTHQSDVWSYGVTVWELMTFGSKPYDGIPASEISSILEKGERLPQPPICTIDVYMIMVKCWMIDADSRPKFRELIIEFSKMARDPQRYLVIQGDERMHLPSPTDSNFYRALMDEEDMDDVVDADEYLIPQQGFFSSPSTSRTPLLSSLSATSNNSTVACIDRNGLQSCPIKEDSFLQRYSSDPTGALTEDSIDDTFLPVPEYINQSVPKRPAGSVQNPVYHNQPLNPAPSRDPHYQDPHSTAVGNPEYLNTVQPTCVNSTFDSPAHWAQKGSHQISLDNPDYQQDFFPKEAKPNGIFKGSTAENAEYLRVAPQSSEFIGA

[6] = Human Liver Microsomes stability; type: in vitro ADME; details: read-out: Human Liver Microsomes t½
[7] = target: T2, CYP3A4 (Homo sapiens, UniProt P08684); assay: CYP3A4 inhibition testosterone LCMS; type: in vitro ADME; details: read-out: CYP3A4 K50 [uM] testosterone LCMS
T2 sequence (P08684 whole entry): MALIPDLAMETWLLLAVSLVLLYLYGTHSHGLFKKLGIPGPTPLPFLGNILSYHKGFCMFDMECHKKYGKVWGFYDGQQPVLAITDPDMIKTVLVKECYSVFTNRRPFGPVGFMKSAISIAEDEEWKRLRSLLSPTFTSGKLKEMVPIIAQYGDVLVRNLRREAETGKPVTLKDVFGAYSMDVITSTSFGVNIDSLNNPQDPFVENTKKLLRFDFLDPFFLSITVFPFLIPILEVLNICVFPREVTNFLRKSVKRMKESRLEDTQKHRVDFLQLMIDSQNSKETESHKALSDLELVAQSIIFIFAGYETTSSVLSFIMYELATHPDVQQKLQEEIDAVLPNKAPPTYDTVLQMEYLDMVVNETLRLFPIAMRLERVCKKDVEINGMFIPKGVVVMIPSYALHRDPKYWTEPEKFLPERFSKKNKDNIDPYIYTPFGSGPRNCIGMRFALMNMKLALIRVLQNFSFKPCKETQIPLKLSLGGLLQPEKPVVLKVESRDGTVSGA

[8] = target: CK1g2 (Homo sapiens, UniProt P78368); assay: Exemplary Kinase Panel Analysis; type: biochemical; details: 10 concentrations, 3-fold serial dilutions starting at 5 μM, duplicate
Sequence of CK1g2 (P78368 whole entry, species assumed): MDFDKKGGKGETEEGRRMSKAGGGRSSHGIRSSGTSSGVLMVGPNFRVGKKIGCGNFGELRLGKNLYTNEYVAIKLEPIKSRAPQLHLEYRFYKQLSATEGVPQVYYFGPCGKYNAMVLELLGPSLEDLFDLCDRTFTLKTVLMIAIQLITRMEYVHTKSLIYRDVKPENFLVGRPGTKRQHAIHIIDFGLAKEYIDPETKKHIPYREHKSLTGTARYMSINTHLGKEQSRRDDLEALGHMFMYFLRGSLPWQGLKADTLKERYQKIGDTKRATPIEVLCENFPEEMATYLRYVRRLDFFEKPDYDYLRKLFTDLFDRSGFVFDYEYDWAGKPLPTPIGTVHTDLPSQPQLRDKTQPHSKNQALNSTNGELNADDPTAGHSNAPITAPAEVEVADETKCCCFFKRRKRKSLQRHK

[9] = target: EGFR (L858R, T790M) (Homo sapiens, UniProt P00533, L858R/T790M); assay: Exemplary Kinase Panel Analysis; type: biochemical; details: 10 concentrations, 3-fold serial dilutions starting at 5 μM, duplicate
Sequence of EGFR (L858R, T790M) (P00533 25-1210 T790M/L858R): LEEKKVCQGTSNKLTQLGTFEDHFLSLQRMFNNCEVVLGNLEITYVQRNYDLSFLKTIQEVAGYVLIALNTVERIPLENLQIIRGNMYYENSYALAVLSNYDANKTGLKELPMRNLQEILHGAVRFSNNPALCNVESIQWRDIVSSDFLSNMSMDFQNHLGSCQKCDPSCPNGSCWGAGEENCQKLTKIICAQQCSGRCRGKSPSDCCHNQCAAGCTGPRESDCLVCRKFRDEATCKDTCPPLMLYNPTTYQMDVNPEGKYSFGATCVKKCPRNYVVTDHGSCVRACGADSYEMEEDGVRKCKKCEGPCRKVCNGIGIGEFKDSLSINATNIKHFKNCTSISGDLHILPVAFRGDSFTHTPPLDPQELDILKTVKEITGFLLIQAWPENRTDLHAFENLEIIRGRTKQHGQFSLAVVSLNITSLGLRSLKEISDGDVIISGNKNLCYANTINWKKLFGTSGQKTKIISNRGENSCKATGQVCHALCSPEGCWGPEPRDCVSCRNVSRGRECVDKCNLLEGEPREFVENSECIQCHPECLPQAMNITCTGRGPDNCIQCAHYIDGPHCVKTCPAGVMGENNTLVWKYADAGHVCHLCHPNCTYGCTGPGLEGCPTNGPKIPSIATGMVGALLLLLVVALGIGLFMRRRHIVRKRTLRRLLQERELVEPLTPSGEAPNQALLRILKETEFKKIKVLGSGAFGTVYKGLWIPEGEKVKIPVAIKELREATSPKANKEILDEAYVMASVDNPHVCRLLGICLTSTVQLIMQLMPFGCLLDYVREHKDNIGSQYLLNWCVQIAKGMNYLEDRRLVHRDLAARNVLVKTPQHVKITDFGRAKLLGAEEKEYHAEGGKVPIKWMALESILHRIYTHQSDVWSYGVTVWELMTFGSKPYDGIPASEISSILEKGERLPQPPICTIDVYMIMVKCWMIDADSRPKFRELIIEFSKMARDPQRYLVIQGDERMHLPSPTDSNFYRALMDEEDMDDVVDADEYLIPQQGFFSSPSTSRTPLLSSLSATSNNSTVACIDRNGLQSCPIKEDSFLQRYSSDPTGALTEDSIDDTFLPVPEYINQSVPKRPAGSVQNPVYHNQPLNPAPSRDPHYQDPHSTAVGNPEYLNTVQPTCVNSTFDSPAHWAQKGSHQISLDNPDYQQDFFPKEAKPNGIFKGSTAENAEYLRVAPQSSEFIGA

[10] = Solubility in aqueous buffer; type: physicochemical; details: for solubility: aqueous buffer
[11] = tested on: STAT5; assay: STAT5 inhibition IC50; type: cell-based
[12] = target: T3, TXK (Homo sapiens, UniProt P42681); assay: Exemplary Kinase Panel Analysis; type: biochemical; details: 10 concentrations, 3-fold serial dilutions starting at 5 μM, duplicate
T3 sequence (P42681 1-527): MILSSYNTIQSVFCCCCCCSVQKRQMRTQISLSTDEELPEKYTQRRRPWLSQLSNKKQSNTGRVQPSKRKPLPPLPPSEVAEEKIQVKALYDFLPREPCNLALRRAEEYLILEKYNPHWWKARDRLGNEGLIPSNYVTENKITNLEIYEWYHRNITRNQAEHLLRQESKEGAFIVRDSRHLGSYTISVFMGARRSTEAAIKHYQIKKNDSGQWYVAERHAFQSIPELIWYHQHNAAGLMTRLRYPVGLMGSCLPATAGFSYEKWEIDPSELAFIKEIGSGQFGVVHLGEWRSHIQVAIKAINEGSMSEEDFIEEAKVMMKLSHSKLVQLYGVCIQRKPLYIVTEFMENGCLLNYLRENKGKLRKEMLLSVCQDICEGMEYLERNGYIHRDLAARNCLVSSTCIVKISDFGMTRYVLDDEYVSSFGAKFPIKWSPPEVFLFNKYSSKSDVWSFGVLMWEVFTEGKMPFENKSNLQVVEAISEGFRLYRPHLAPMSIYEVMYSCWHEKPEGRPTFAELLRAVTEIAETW

[13] = Brain penetration classification
[14] = target: T2, CYP3A4; assay: CYP3A4 inhibition midazolam LCMS; type: in vitro ADME
[15] = Human Plasma protein binding; type: in vitro ADME
[16] = Mouse Liver Microsomes stability; type: in vitro ADME; details: read-out: Mouse Liver Microsomes t½
[17] = pH 7.4, aqueous buffer, pH 7.4, Original, read-out: Solubility pH 7.4 (uM) Original
[18] = pH 7.4, aqueous buffer, pH 7.4, Re-test, read-out: Solubility pH 7.4 (uM) Re-test
[19] = pH 7.4, aqueous buffer, pH 7.4, Table 3, first session (before /), read-out: Solubility, pH 7.4
[20] = pH 7.4, aqueous buffer, pH 7.4, Table 3, second session (after /), read-out: Solubility, pH 7.4
[21] = Original analysis, read-out: STAT5 IC50 (uM) Original
[22] = Table 3, first session (before /), read-out: STATS inhibition IC50
[23] = Table 3, second session (after /), read-out: STATS inhibition IC50
[24] = re-test, read-out: STAT5 IC50 (uM) re-test

Sequence of CK1g3 (Q9Y6M4 whole entry): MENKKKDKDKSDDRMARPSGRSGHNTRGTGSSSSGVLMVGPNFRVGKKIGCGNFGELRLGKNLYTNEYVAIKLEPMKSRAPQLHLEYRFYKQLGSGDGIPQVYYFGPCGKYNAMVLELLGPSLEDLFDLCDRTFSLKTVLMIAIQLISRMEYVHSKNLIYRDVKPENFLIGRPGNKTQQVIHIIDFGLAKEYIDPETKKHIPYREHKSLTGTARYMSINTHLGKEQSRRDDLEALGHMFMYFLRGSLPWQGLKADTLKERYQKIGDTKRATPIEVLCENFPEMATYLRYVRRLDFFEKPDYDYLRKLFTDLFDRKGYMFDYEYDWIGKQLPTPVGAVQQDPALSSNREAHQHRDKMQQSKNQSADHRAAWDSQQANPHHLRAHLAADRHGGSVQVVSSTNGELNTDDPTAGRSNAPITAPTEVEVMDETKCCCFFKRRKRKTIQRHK

SMILES | IC50 [1] | half-life ([2]; first session (before /)) | half-life ([2]; second session (after /)) | IC50 [3] | IC50 [4] | IC50 [5] | half-life ([6]; first session (before /)) | half-life ([6]; second session (after /)) | IC50 ([7]; first session (before /)) | IC50 ([7]; second session (after /)) | IC50 [8] | IC50 [9] | solubility [10, 17] | solubility [10, 18] | solubility [10, 19] | solubility [10, 20] | IC50 [11, 21] | IC50 [11, 22] | IC50 [11, 23] | IC50 [11, 24] | also measured
C=CC(=O)Nc1cc(CN2CCN(C)C(=O)C2)cc(-c2cnc3ccccc3n2)c1 [Compound 1a] | 0.358 µM | 50 min | 36 min | > 10 µM | 0.688 µM | 0.194 µM | 64 min | 60 min | 81.5 µM | > 100 µM | 0.248 µM | 0.231 µM | 85 µM (≈ 34.1 µg/mL) | 34 µM (≈ 13.6 µg/mL) | 85 µM (≈ 34.1 µg/mL) | 34 µM (≈ 13.6 µg/mL) | 1.2 µM | 1.2 µM | 2.9 µM | 2.9 µM | IC50 [12]: 0.0316 µM; Brain penetration classification [13]: Low; IC50 ([14]; first session (before /)): > 100 µM; IC50 ([14]; second session (after /)): > 100 µM; fraction unbound [15]: 0.223; half-life ([16]; first session (before /)): 7.3 min; half-life ([16]; second session (after /)): 15 min
C=CC(=O)Nc1cc(CN2CCNC(=O)C2)cc(-c2cnc3ccccc3n2)c1 [Compound 1b, N-[3-[(3-oxopiperazin-1-yl)methyl]-5-quinoxalin-2-yl-phenyl] prop-2-enamide] | 0.757 µM | 63 min | 77 min | > 10 µM | 3.54 µM | 1.56 µM | 75 min | > 60 min | > 100 µM | > 100 µM | 0.322 µM | 1.32 µM | 88 µM (≈ 34.1 µg/mL) | 88 µM (≈ 34.1 µg/mL) | 88 µM (≈ 34.1 µg/mL) | 88 µM (≈ 34.1 µg/mL) | 5.5 µM | 5.5 µM | 8.6 µM | 8.6 µM | solubility ([10]; pH 5, aqueous buffer, pH 5.0, read-out: Solubility In Aqueous Buffer pH 5.0): 93 µM (≈ 36 µg/mL); solubility ([10]; pH 6.5, aqueous buffer, pH 6.5, read-out: Solubility In Aqueous Buffer pH 6.5): 108 µM (≈ 41.8 µg/mL); solubility at pH 7.4 (in words) ([10]; pH 7.4): highly and consistently soluble; IC50 [12]: 0.0161 µM; Brain penetration classification [13]: Low; IC50 ([14]; first session (before /)): > 100 µM; IC50 ([14]; second session (after /)): > 100 µM; fraction unbound [15]: 0.317; half-life ([16]; first session (before /)): 23 min; half-life ([16]; second session (after /)): 50 min
C=CC(=O)Nc1cc(CC(=O)OC)cc(-c2cnc3ccccc3n2)c1 [Compound 2] | 0.0244 µM | 2 min | 2.2 min | > 10 µM | 3.31 µM | 1.03 µM | > 1000 min | 5.5 min | > 100 µM | > 100 µM | 0.00986 µM | 0.653 µM | 9 µM (≈ 3.13 µg/mL) | 1 µM (≈ 0.347 µg/mL) | 9 µM (≈ 3.13 µg/mL) | 1 µM (≈ 0.347 µg/mL) | 0.8 µM | 0.8 µM | 2.9 µM | 2.9 µM | IC50 [12]: 0.0149 µM; Brain penetration classification [13]: Moderate; IC50 ([14]; first session (before /)): > 100 µM; IC50 ([14]; second session (after /)): > 100 µM; fraction unbound [15]: 0.123; half-life ([16]; first session (before /)): 3.3 min; half-life ([16]; second session (after /)): 6 min
C=CC(=O)Nc1cc(NS(C)(=O)=O)cc(-c2cnc3ccccc3n2)c1 [Compound 3] | 0.118 µM | 38 min | 60 min | > 1 µM | 2.24 µM | 3.18 µM | 58 min | 60 min | 89.7 µM | 51 µM | 0.0333 µM | 1.12 µM | 34 µM (≈ 12.5 µg/mL) | 3 µM (≈ 1.11 µg/mL) | 34 µM (≈ 12.5 µg/mL) | 3 µM (≈ 1.11 µg/mL) | 7.5 µM | 7.5 µM | 7.4 µM | 7.4 µM | IC50 [12]: 0.144 µM; Brain penetration classification [13]: Low; IC50 ([14]; first session (before /)): > 100 µM; IC50 ([14]; second session (after /)): > 100 µM; fraction unbound [15]: 0.054; half-life ([16]; first session (before /)): 25 min; half-life ([16]; second session (after /)): 84 min
